# In US12357691B2, “Antibodies specifically binding to CD147 and uses thereof” (Alphelix Biotech Co., Ltd., priority 2022, dated 2025):
# Experiments:
# [1] = tested on: patient-derived NSCLC organoid; experiment: Organoid drug response assay (CellTiter-Glo); format: cell-based, human; conditions: three days of drug incubation; three patient models
# Description: All procedures performed involving human participants were approved by the Ethics Committee of Shanghai Jiao Tong University School of Medicine and were in accordance with the ethical standards of Helsinki Declaration (as revised in 2013). All the donors signed an informed consent form. Freshly excised tumor samples from patients were kept in MACS tissue storage solution (Miltenyi) at 4° C. upon harvest. Tumor tissues were minced into small pieces on ice, then incubated with 0.001% DNase (Sigma-Aldrich, MO, USA), 1 mg/mL collagenase/dispase (Roche, IN, USA), 200 U/mL penicillin, […], and […] amphotericin B (2% antibiotics, Sigma) in DMEM/F12 medium (Thermofisher) at 37° C. for three hours with gentle agitation and intermittent resuspension. Thereafter, the digested tissue suspension was repeatedly triturated via pipetting and passed through a 70 μm filter. The strained suspension was centrifuged at 112×g for three minutes, and red blood cells were lysed using lysis buffer (00443357, Thermofisher) for five minutes. […]
# The organoids cultured over two weeks were harvested and dissociated using 1× TrypLe (Thermofisher). […] The plates were agitated for 30 minutes at room temperature (10° C.-30° C.) prior to measuring luminescence.
# [2] = tested on: peripheral blood mononuclear cells (PBMC); experiment: Toxicity on patients' PBMC; format: cell-based, human
# Description: Then, treating organoids in presence of 5 μg/mL pembrolizumab, in combination with either of these agents (AZD3965 at 0.1 μM, GSK2837808A at 1 μM, and WZHAb10 at 0.0006 μM) and each PBMC (FIGS. 18, 19 and 20). IgG was used as control in FIG. 18, IgG and/or vehicle were used as control in FIGS. 19-20.
# WT MCT1/BSG-2 (mouse) = WT MCT1/BSG-2 (mouse) (UniProt P53986)
# WT MCT4/BSG-2 (mouse) = WT MCT4/BSG-2 (mouse) (UniProt P57787)
molecule,measurement,setting,value
Cc1[nH]nc(C(F)(F)F)c1Cc1sc2c(c1C(=O)N1C[C@](C)(O)CO1)c(=O)n(C)c(=O)n2C(C)C [AZD3965],anti-proliferative effect of single agent on organoids,[1],moderate anti-proliferative effect
same,effect on T cell growth (PBMC),[2]; at 0.1 μM,little effects on T cell growth
COc1ncc(-c2ccc3c(Nc4cc(Oc5cc(F)cc(F)c5)cc(C(=O)O)c4)c(S(=O)(=O)NC4CC4)cnc3c2)c(OC)n1 [GSK2837808A],anti-proliferative effect of single agent on organoids,[1],moderate anti-proliferative effect
same,effect on T cell growth (PBMC),[2]; at 1 μM,little effects on T cell growth
"WZHAb10 (antibody, V domains shown) VH: QVQLVQSGAEVKKPGASVKVSCKASGYTFTNYWIHWVRQAPGQGLEWMGMIHPNSGSINYNEKFKTRVTMTRDTSTSTVYMELSSLRSEDTAVYYCARVGSGSLDYWGQGTLVTVSS VL: EIVLTQSPATLSLSPGERATLSCRASQSISDYLHWYQQKPGQAPRLLIKYVSQSISGIPARFSGSGSGTYFTLTISSLEPEDVAVYYCQNGEEAPYTFGQGTKLEIKR","transport activity (H+ influx, H+-pyruvate symport in proteoliposomes)",WT MCT1/BSG-2 (mouse),75%
same,"transport activity (H+ influx, H+-L-lactate symport in proteoliposomes)",WT MCT4/BSG-2 (mouse),50%
